Data from a melting point compilation (Tetko et al.; mined from patent text by program, amines drawn as free bases though some values may be those of a salt).

Compound | melting point [°C]
O=C(NCCCSc1cccnc1)c1cccs1 | 66 to 67
CN(c1nccc(-n2nnc3ccccc32)n1)[C@H]1CC[C@H](N(C)S(C)(=O)=O)CC1 | 204
CCCC(CCC)c1ccc(OCc2ccc(-c3csc(COc4cncc(C(=O)O)c4)c3)cc2)cc1 | 157 to 159
Cc1ccc(C(=O)Cn2cncn2)cc1 | 118
COc1ccc2nc(C(=O)NCc3ccc(C(=O)O)cc3)[nH]c(=O)c2c1 | 287 to 288
N#Cc1ccc(NN)cc1 | 84 to 87
CC(=O)C=CS(=O)(=O)N1C=C(Cl)C=NC1 | 95
O=C1CCc2c(Cl)cc(Cl)c(I)c21 | 170 to 172
Cc1noc(-c2ccc(C(=O)O)s2)n1 | 226 to 228
O=c1cc(S)sc2cc(N3CCOCC3)ccc12 | > 250
CS(=O)C1C(=O)Nc2ccc(C(F)(F)F)cc21 (stereo unspecified) | 141 to 142
Cc1cc(Br)ccc1C(=O)NCC(F)(F)F | 124 to 126
N#Cc1cc(C(N)=O)ccc1Cl | 193
CC(=O)ON1C(C)(C)CC(OC(=O)NCCCCCCNC(=O)OC2CC(C)(C)N(OC(C)=O)C(C)(C)C2)CC1(C)C | 158 to 163
Oc1ccc(Cc2cnc3c(-c4cc(-c5ccccc5)cs4)cnn3c2O)cc1 | 287 to 293
COc1ccc(C=O)c(-c2ccc(O[Si](C)(C)C(C)(C)C)cc2)c1O | 103 to 106
CC(C)C(O)(Cn1cncn1)c1ccc(Oc2ccc(Cl)cc2)cc1C(F)(F)F (stereo unspecified) | 114
CC(=O)Nc1cccc(-c2ccc3nnn(Cc4ccc5ncccc5c4)c3n2)c1 | 198 to 201
CCCCCCCCCCCC(=O)Oc1ccc2nc(S(N)(=O)=O)sc2c1 | 112 to 114
Cc1cc(Nc2ccnc(Nc3ccc(S(=O)(=O)N4CCC(C(O)c5ccncc5)CC4)cc3)n2)ccc1F (stereo unspecified) | 162
CCOC1SCN(c2ccc(Cl)c(Cl)c2)C1=O (stereo unspecified) | 61 to 65
O=C(NCc1ccc(Cl)cc1)c1cn2c3c(cc(CN4CCOCC4)cc3c1=O)OC(CN1CCCC1)C2 (stereo unspecified) | 210 to 212
CCCC(SCC(=O)O)c1cc2c(cc1C)OCO2 (stereo unspecified) | 77.5 to 78
Cc1c(C(=O)c2cnn(C)c2O)ccc2sc(=O)n(C)c12 | 192 to 195

Compound | melting point [°C]
O=C(NCC(=O)N(O)CCCP(=O)(O)O)OCc1ccccc1 | 101 to 105
CCC(=NC#N)N(C)C(C)c1ccc(Cl)cc1Cl (stereo unspecified) | 148
CCCc1nc2c(N)nc3cc(Cl)ccc3c2s1 | 159 to 160
Cc1oc(-c2ccccc2)nc1COc1ccc(CON=C(CCCCCC(=O)O)c2ccccc2)cc1 | 84 to 85
CN1CCC2(CC1)NC(=O)N(c1ccc(C#N)c(C(F)(F)F)c1)C2=N | 199 to 200
CC12CCC(O)CC1=CCC1C2CCC2(C)C(n3ccnc3)=CCC12 (stereo unspecified) | 220 to 223
CCCc1cc(Cl)c2oc(Cc3ccccc3)c(C)c2c1O | 69 to 70
Cn1cnc(S(=O)(=O)O)c1Cl | 309 to 310
CCn1c(=O)sc2cc(N3C[C@H](C(N)=O)OC3=O)ccc21 | 211 to 212
CC(=O)OC(n1cc(C#N)c(-c2cccc(Cl)c2Cl)c1)C(Cl)(Cl)Cl (stereo unspecified) | 111 to 113
CC(C)[C@H](NC(=O)Oc1ccccc1)C(=O)O | 84.5 to 85.5
C[C@@H]1OCCN(c2cc(N3CCOCC3)nc(-n3c(N)nc4ccccc43)n2)[C@@H]1C (relative stereo) | 118 to 123
Cc1noc(-c2ccc(-c3cscn3)cc2)c1-c1ccc(S(N)(=O)=O)cc1 | 236
CCOCCCOc1ccc(-c2ccc3c(c2)C=C(C(=O)OC)CCN3)cc1 | 99 to 102
CCCCCCCCCCCCc1c(C)[nH]c(C(=O)OCC)c1C | 65 to 67
COCOc1cc(OC)ccc1C(=O)c1ccc(OCc2nc(-c3ccccc3)oc2C)cc1 | 119 to 120
CC1CCN(c2c(-c3c(F)cc(F)cc3F)c(Cl)nc3nc(S)nn23)CC1 | 194
CC(=O)C1=CCC2C3CCC4=CC(=O)CCC4(C)C3=CCC12C (stereo unspecified) | 200 to 201
COC(=O)CNC(=O)OC1c2ccccc2C(=O)N1c1ccc2ccc(Cl)nc2n1 (stereo unspecified) | 208 to 210
O=C(Nc1c[nH]nc1C(=O)NC1CCCCC1)c1ccccn1 | 262 to 263
CCS(=O)(=O)c1ccc2c(c1)nc(CC(C)(C)C)n2CCOC(F)(F)F | 133
CCOC(=O)C1(c2ccccc2)CCN(CC(=O)O)CC1 | 148 to 150
CCCc1nc2c(N)nc(C)c(C)c2n1CCCCNC(C)=O | 200 to 201
CC(=O)CC(=O)NC(=O)C(C)C | 148 to 160

Compound | melting point [°C]
N#Cc1ccc(-c2cccc(OC3SCC(O)C(O)C3O)c2)cn1 (stereo unspecified) | 179
CN(C(=O)OC(C)(C)C)C1CC=C(c2c[nH]c3cc([N+](=O)[O-])ccc23)CC1 (stereo unspecified) | 208 to 210
Cn1c(=O)oc2cc(C(O)CCN3CCOCC3)ccc21 (stereo unspecified) | 132
NNC(=O)CCCSc1nccc(NC(N)=NCC(F)(F)F)n1 | 192 to 195
CCCCCCCNC(=NC#N)Nc1cccnc1 | 90 to 91
Cc1nc(N)c2nc(C)n(NC3CCCCC3)c2c1C | 242 to 244
O=C(O)CC1CCCc2c1[nH]c1ccc(F)cc21 (stereo unspecified) | 124 to 126
CNC1=Nc2ccc(C3=NNC(=O)CC3)cc2C1(C)C | 320 to 324
CC1(C)OC(=O)Nc2ccc(-c3ccc(S(N)(=O)=O)s3)cc21 | 258 to 260
CCCCC(CC)COc1cccc(N2C(C)=CC(=C=C3C(C#N)C(=C(C#N)C#N)OC3(C)C)C=C2C)c1 (stereo unspecified) | 181
CN1CCN(Cc2ccc(NC(=O)c3ccc(Cl)c(C#Cc4ccc(NC5CC5)nn4)c3)cc2C(F)(F)F)CC1 | 133 to 134
Cn1ncnc1COc1nc2c(cc1C(C)(C)C)nnn2-c1c(F)cccc1F | 105 to 108
CC(=O)C(=Cc1ccc(S(C)(=O)=O)c(F)c1)C(C)=O | 140 to 143
COc1ccc(/C=C(\C#N)c2ccc(Br)cc2)cc1OC1CCCC1 | 116 to 119
Nc1ncnc2c1c(-c1ccc(F)cc1)cn2-c1ccccc1 | 202 to 203
Cc1cnc2c(NC(=O)c3c(Cl)cccc3Cl)ccc(Br)c2c1 | 238 to 239
COc1cc(Nc2nc3cccc(-c4ccc(N)cc4)c3o2)cc(OC)c1OC | 192 to 196
O=C(NC(Cc1cccc(Cl)c1)C(=O)N1CCSC1)c1cc2cc(Cl)ccc2[nH]1 (stereo unspecified) | 188 to 190
CCCc1cc(O)nc(SCc2ccccc2)n1 | 122 to 126
COc1ccc(C(=O)NC(CC(C)C)C(=O)O)c(SSc2cc(OC)ccc2C(=O)NC(CC(C)C)C(=O)O)c1 (stereo unspecified) | 230 to 231
Cn1cnc2c1c1n[nH]c(=O)n1c(=O)n2Cc1ccccc1 | 295
Oc1ccc(CN(Cc2ccc(O)c3ncccc23)Cc2ccc(O)c3ncccc23)c2cccnc12 | 175 to 178

Next, values leading:

melting point [°C] | Compound
150 to 151 | CCOC(=O)CCc1cc(O)nn1-c1ccccc1
130 to 131 | CS(=O)(=O)c1ccc(-c2ccccc2Oc2ccccc2)cc1
231 to 233 | Cc1cc(NC(=O)c2ccccc2C)ccc1C(=O)O
190 to 195 | CC(C)(C)NC(=O)CN1C(=O)C(N)CC(c2ccccc2F)c2ccccc21 (stereo unspecified)
145 to 147 | CN1CCN(c2nn(S(=O)(=O)c3ccccc3)c3ccc(Cl)cc23)CC1
188 to 189 | CC(c1ccnc(C#N)c1)C(O)(Cn1cncn1)c1ccc(F)cc1F (stereo unspecified)
159 to 161 | CC(C)n1c(/C=C/C=O)c(-c2ccc(F)cc2)c2ccccc2c1=O
129 to 134 | Cn1cc(C(=O)NCc2ccc(Cl)cc2)c(=O)c2cc(CN3CCOC[C@@H]3[C@H](O)c3ccccc3)sc21
158 to 159 | CC(=O)c1cccc(Nc2c3ccccc3nc3occc23)c1
228 to 230 | N#CC(C(=O)Nc1ccon1)C(=O)c1nn(-c2ccccc2)c2c1CSc1ccccc1-2 (stereo unspecified)
212 to 213 | CNC(=O)c1cnc(-c2ccccc2)c(-c2ccc(=O)n(C(C)C)n2)c1
87 to 89 | CCCCS(=O)(=O)N(C(=O)OC(C)(C)C)c1cc(OC[C@@H]2CO2)ccc1OCc1ccccc1
149 to 150 | Cc1ccc(COc2ccn(Cc3ccccc3)c(=O)c2Br)cc1
180 to 182 | O=C(Cn1nc(-c2ccccc2O)nc1-c1ccccc1O)NCCN1CCOCC1
96 to 99 | Cc1cc(O)ccc1Oc1ccccc1
48 to 50 | COC(=O)c1cc(OC)c2ccccc2c1OC

melting point [°C] | Compound
187 to 192 | CCC(C)(C)OC(=O)NC(C)(Cc1c[nH]c2ccccc12)C(=O)NC(Cc1cccs1)C(N)=O (stereo unspecified)
112 to 113 | CC(C)=C1c2ccccc2-c2ccccc21
186 to 188 | CC(C)CNc1cccc(-c2ccnc3c(C(=O)c4cccs4)cnn23)c1
190 to 191 | COc1cc(C(=O)O)ccc1Cc1cn(C)c2ccc(C(=O)NCCC(C)C)cc12
93 to 96 | CN(C)CCNC(=O)c1ccc(-c2ccccc2CSCCOc2ccccc2)cc1
102 to 104 | COC(=O)CC(=O)Nc1cccc(COc2ccc(C(C)=O)c(F)c2)c1
121 to 122 | O=C(Nc1ccc(N2C[C@H]3CN(C(=O)OCc4ccccc4)C[C@H]3C2)c(F)c1)OCc1ccccc1
134 | CCOC(=O)CCCc1cn(C(c2ccccc2)(c2ccccc2)c2ccccc2)cn1
153 to 155 | Nc1cc(C(=O)O)cc(SCc2ccsc2)c1Oc1ccccc1
185 to 193 | Cc1cc2ccccc2nc1Sc1ccc2c(c1)CC[C@H]1N(C)C(=O)CC[C@]21C
98 to 99 | COc1ccc(C(=O)COc2ccc(C(=O)OCc3ccccc3)c(O)c2)cc1C(C)(C)C
140 | CC#CCOc1ccc(SC(C(=O)NO)c2cccc3ccccc23)cc1 (stereo unspecified)
99 | O=C1C=C(c2cccn2Cc2ccccc2)C(=O)c2ccccc21
137 to 138 | NS(=O)(=O)c1ccc(-c2oc(C(F)(F)F)nc2-c2ccccc2)cc1
203 to 205 | CN(C)C=CC(=O)c1ccc(C(=O)N2Cc3cccn3Cc3ccccc32)cc1
